Data as given in patent US6579983B1, “5-cyano-2-aminopyrimidine derivatives” (Celltech R&D Limited, priority 1999, dated 2003).

In the case of `CC(C)(N)c1ccc(-c2nc(Nc3ccc4[nH]ncc4c3)ncc2C#N)cc1` [Example 8, 4-[4-(1-Amino-1-methylethyl)phenyl]-5-cyano-N-(indazol-5-yl)pyrimidine-2-amine], the melting point is reported as 267 to 271 °C (dec.).
With `COc1cc(Nc2ncc(C#N)c(-c3ccc(C(C)(C)N)cc3)n2)cc(OC)c1OC` [Example 9, 4-[4-(1-Amino-1-methylethyl)phenyl]-5-cyano-N-(3,4,5-trimethoxyphenyl)pyrimidine-2-amine] the melting point was 167 to 168 °C.
